# Source: patent US12540143B2, “Methods and compositions for targeted protein degradation” (Ranok Therapeutics (Hangzhou) Co. Ltd., priority 2019, dated 2026)
# pIC50: −log10 of the molar value.
# Test system: MV4-11 cells
# Test: MV4-11 Cytotoxicity Assay
# Type: cell-based, human
# Details: 72 hr, CCK-8; read-out: MV4-11 cytotoxicity
row,SMILES,pIC50
1,CC[C@@H](C)Nc1cc(C(=O)NC2C[C@H]3CC[C@H](C2)N3c2ccc(C(=O)c3ccc(CN4CCN(CC5CCN(C(=O)C[C@@H]6N=C(c7ccc(Cl)cc7)c7c(sc(C)c7C)-n7c(C)nnc76)CC5)CC4)cc3)cn2)c(C)cc1C(N)=O (some centres unmarked) [Compound 25],6.00 to 7.00

# Same assay, conditions: Homo sapiens, MV4-11, 72 h, read-out: MV4-11 cytotoxicity
row,SMILES,pIC50
1,"CCc1cc(-c2nnc(C(N)=O)n2-c2ccc(CN3CCN(CC4CCN(C(=O)C[C@@H]5N=C(c6ccc(Cl)cc6)c6c(sc(C)c6C)-n6c(C)nnc65)CC4)CC3)cc2)c(O)cc1O [Compound 106, (S)-4-(4-((4-((1-(2-(4-(4-chlorophenyl)-2,3,9-trimethyl-6H-thieno[3,2-f][1,2,4]triazolo[4,3-a][1,4]diazepin-6-yl)acetyl)piperidin-4-yl)methyl)piperazin-1-yl)methyl)phenyl)-5-(5-ethyl-2,4-dihydroxyphenyl)-4H-1,2,4-triazole-3-carboxamide, trifluoroacetic acid]",> 7.00

# Same assay, conditions: Homo sapiens, MV4-11; 72 hr, CCK-8; read-out: MV4-11 cytotoxicity
row,SMILES,pIC50
1,"CCc1cc(-c2nnc(O)n2-c2ccc(CN3CCN(CC4CCN(CC[C@@H]5N=C(c6ccc(Cl)cc6)c6c(sc(C)c6C)-n6c(C)nnc65)CC4)CC3)cc2)c(O)cc1O [Compound 2, 4-(4-(4-((4-((1-(2-((6S)-4-(4-chlorophenyl)-2,3,9-trimethyl-6H-thieno[3,2-f][1,2,4]triazolo[4,3-a][1,4]diazepin-6-yl)ethyl)piperidin-4-yl)methyl)piperazin-1-yl)methyl)phenyl)-5-hydroxy-4H-1,2,4-triazol-3-yl)-6-ethylbenzene-1,3-diol, trifluoroacetic acid]",6.00 to 7.00
2,"CCc1cc(-c2nnc(O)n2-c2ccc(CC3CCN(CC4CCN(C(=O)C[C@@H]5N=C(c6ccc(Cl)cc6)c6c(sc(C)c6C)-n6c(C)nnc65)CC4)CC3)cc2)c(O)cc1O [Compound 88, (S)-2-(4-(4-chlorophenyl)-2,3,9-trimethyl-6H-thieno[3,2-f][1,2,4]triazolo[4,3-a][1,4]diazepin-6-yl)-1-(4-((4-(4-(3-(5-ethyl-2,4-dihydroxyphenyl)-5-hydroxy-4H-1,2,4-triazol-4-yl)benzyl)piperidin-1-yl)methyl)piperidin-1-yl)ethan-1-one, formic acid]",> 7.00
3,"Cc1sc2c(c1C)C(c1ccc(Cl)cc1)=N[C@@H](CC(=O)NCC(=O)NCc1ccc(-n3c(O)nnc3-c3cc(C(C)C)c(O)cc3O)cc1)c1nnc(C)n1-2 [Compound 57, 2-((6S)-4-(4-chlorophenyl)-2,3,9-trimethyl-6H-thieno[3,2-f][1,2,4]triazolo[4,3-a][1,4]diazepin-6-yl)-N-(2-((4-(3-(2,4-dihydroxy-5-isopropylphenyl)-5-hydroxy-4H-1,2,4-triazol-4-yl)benzyl)amino)-2-oxoethyl)acetamide]",6.00 to 7.00
4,"Cc1sc2c(c1C)C(c1ccc(Cl)cc1)=NC(CC(=O)N[C@H](C)c1ccc(CN3CCN(Cc4ccc(-n5c(O)nnc5-c5cc(C(C)C)c(O)cc5O)cc4)CC3)cc1)c1nnc(C)n1-2 (stereo in doubt) [Compound 70, 2-((6S)-4-(4-chlorophenyl)-2,3,9-trimethyl-6H-thieno[3,2-f][1,2,4]triazolo[4,3-a][1,4]diazepin-6-yl)-N—((R)-1-(4-((4-(4-(3-(2,4-dihydroxy-5-isopropylphenyl)-5-hydroxy-4H-1,2,4-triazol-4-yl)benzyl)piperazin-1-yl)methyl)phenyl)ethyl)acetamide, trifluoroacetic acid]",> 7.00
5,"Cc1sc2c(c1C)C(c1ccc(Cl)cc1)=N[C@@H](CC(=O)N1CCC(CN3CCN(Cc4ccc(-n5c(C(N)=O)nnc5-c5cc(C(C)C)c(O)cc5O)cc4)CC3)CC1)c1nnc(C)n1-2 [Compound 109, (S)-4-(4-((4-((1-(2-(4-(4-chlorophenyl)-2,3,9-trimethyl-6H-thieno[3,2-f][1,2,4]triazolo[4,3-a][1,4]diazepin-6-yl)acetyl)piperidin-4-yl)methyl)piperazin-1-yl)methyl)phenyl)-5-(2,4-dihydroxy-5-isopropylphenyl)-4H-1,2,4-triazole-3-carboxamide, trifluoroacetic acid]",> 7.00
6,"Cc1sc2c(c1C)C(c1ccc(Cl)cc1)=N[C@@H](CC(=O)NCCOc1ccc(-n3c(S)nnc3-c3cc(C(C)C)c(O)cc3O)cc1)c1nnc(C)n1-2 [Compound 32, (S)-2-(4-(4-chlorophenyl)-2,3,9-trimethyl-6H-thieno[3,2-f][1,2,4]triazolo[4,3-a][1,4]diazepin-6-yl)-N-(2-(4-(3-(2,4-dihydroxy-5-isopropylphenyl)-5-mercapto-4H-1,2,4-triazol-4-yl)phenoxy)ethyl)acetamide]",6.00 to 7.00
7,"Cc1sc2c(c1C)C(c1ccc(Cl)cc1)=N[C@@H](CC(=O)N1CCC(CN3CCN(Cc4ccc(-n5c(C(=O)NCC(F)(F)F)nnc5-c5cc(C(C)C)c(O)cc5O)cc4)CC3)CC1)c1nnc(C)n1-2 [Compound 13, 4-(4-((4-((1-(2-((6S)-4-(4-chlorophenyl)-2,3,9-trimethyl-6H-thieno[3,2-f][1,2,4]triazolo[4,3-a][1,4]diazepin-6-yl)acetyl)piperidin-4-yl)methyl)piperazin-1-yl)methyl)phenyl)-5-(2,4-dihydroxy-5-isopropylphenyl)-N-(2,2,2-trifluoroethyl)-4H-1,2,4-triazole-3-carboxamide]",> 7.00
8,"Cc1sc2c(c1C)C(c1ccc(Cl)cc1)=N[C@@H](CC(=O)NCCc1ccc(CN3CCC(Cc4ccc(-n5c(O)nnc5-c5cc(C(C)C)c(O)cc5O)cc4)CC3)cc1)c1nnc(C)n1-2 [Compound 98, (S)-2-(4-(4-chlorophenyl)-2,3,9-trimethyl-6H-thieno[3,2-f][1,2,4]triazolo[4,3-a][1,4]diazepin-6-yl)-N-(4-((4-(4-(3-(2,4-dihydroxy-5-isopropylphenyl)-5-hydroxy-4H-1,2,4-triazol-4-yl)benzyl)piperidin-1-yl)methyl)phenethyl)acetamide, trifluoroacetic acid]",> 7.00
9,"Cc1sc2c(c1C)C(c1ccc(Cl)cc1)=N[C@@H](CC(=O)N[C@H](C)c1cccc(CN3CCC(Cc4ccc(-n5c(O)nnc5-c5cc(C(C)C)c(O)cc5O)cc4)CC3)c1)c1nnc(C)n1-2 [Compound 81, 2-((S)-4-(4-chlorophenyl)-2,3,9-trimethyl-6H-thieno[3,2-f][1,2,4]triazolo[4,3-a][1,4]diazepin-6-yl)-N—((R)-1-(3-((4-(4-(3-(2,4-dihydroxy-5-isopropylphenyl)-5-hydroxy-4H-1,2,4-triazol-4-yl)benzyl)piperidin-1-yl)methyl)phenyl)ethyl)acetamide, trifluoroacetic acid]",> 7.00
10,"Cc1sc2c(c1C)C(c1ccc(Cl)cc1)=N[C@@H](CCNCCOc1ccc(-n3c(O)nnc3-c3cc(C(C)C)c(O)cc3O)cc1)c1nnc(C)n1-2 [Compound 62, (S)-4-(4-(4-(2-((2-(4-(4-chlorophenyl)-2,3,9-trimethyl-6H-thieno[3,2-f][1,2,4]triazolo[4,3-a][1,4]diazepin-6-yl)ethyl)amino)ethoxy)phenyl)-5-hydroxy-4H-1,2,4-triazol-3-yl)-6-isopropylbenzene-1,3-diol, trifluoroacetic acid]",6.00 to 7.00
11,"Cc1sc2c(c1C)C(c1ccc(Cl)cc1)=N[C@@H](CC(=O)NCC(=O)NCCOCCOc1ccc(-n3c(O)nnc3-c3cc(C(C)C)c(O)cc3O)cc1)c1nnc(C)n1-2 [Compound 55, (S)-2-(4-(4-chlorophenyl)-2,3,9-trimethyl-6H-thieno[3,2-f][1,2,4]triazolo[4,3-a][1,4]diazepin-6-yl)-N-(2-((2-(2-(4-(3-(2,4-dihydroxy-5-isopropylphenyl)-5-hydroxy-4H-1,2,4-triazol-4-yl)phenoxy)ethoxy)ethyl)amino)-2-oxoethyl)acetamide]",6.00 to 7.00
12,"Cc1sc2c(c1C)C(c1ccc(Cl)cc1)=N[C@@H](CC(=O)N1CCC(N3CCN(Cc4ccc(-n5c(O)nnc5-c5cc(C(C)C)c(O)cc5O)cc4)CC3)CC1)c1nnc(C)n1-2 [Compound 42, (S)-2-(4-(4-chlorophenyl)-2,3,9-trimethyl-6H-thieno[3,2-f][1,2,4]triazolo[4,3-a][1,4]diazepin-6-yl)-1-(4-(4-(4-(3-(2,4-dihydroxy-5-isopropylphenyl)-5-hydroxy-4H-1,2,4-triazol-4-yl)benzyl)piperazin-1-yl)piperidin-1-yl)ethan-1-one, trifluoroacetic acid]",> 7.00
13,"Cc1sc2c(c1C)C(c1ccc(Cl)cc1)=N[C@@H](CCN(C)CCOc1ccc(-n3c(O)nnc3-c3cc(C(C)C)c(O)cc3O)cc1)c1nnc(C)n1-2 [Compound 65, (S)-4-(4-(4-(2-((2-(4-(4-chlorophenyl)-2,3,9-trimethyl-6H-thieno[3,2-f][1,2,4]triazolo[4,3-a][1,4]diazepin-6-yl)ethyl)(methyl)amino)ethoxy)phenyl)-5-hydroxy-4H-1,2,4-triazol-3-yl)-6-isopropylbenzene-1,3-diol]",6.00 to 7.00
14,"Cc1sc2c(c1C)C(c1ccc(Cl)cc1)=N[C@@H](CCNCC1CCN(C(=O)C3CCN(Cc4ccc(-n5c(O)nnc5-c5cc(C(C)C)c(O)cc5O)cc4)CC3)C1)c1nnc(C)n1-2 (stereo partly drawn) [Compound 66, (3-(((2-((6S)-4-(4-chlorophenyl)-2,3,9-trimethyl-6H-thieno[3,2-f][1,2,4]triazolo[4,3-a][1,4]diazepin-6-yl)ethyl)amino)methyl)pyrrolidin-1-yl)(1-(4-(3-(2,4-dihydroxy-5-isopropylphenyl)-5-hydroxy-4H-1,2,4-triazol-4-yl)benzyl)piperidin-4-yl) methanone, trifluoroacetic acid]",6.00 to 7.00
15,"Cc1sc2c(c1C)C(c1ccc(Cl)cc1)=N[C@@H](CC(=O)NCc1ccc(CN3CCC(Cc4ccc(-n5c(C(=O)NCC(F)(F)F)nnc5-c5cc(C(C)C)c(O)cc5O)cc4)CC3)cc1)c1nnc(C)n1-2 [Compound 96, (S)-4-(4-((1-(4-((2-(4-(4-chlorophenyl)-2,3,9-trimethyl-6H-thieno[3,2-f][1,2,4]triazolo[4,3-a][1,4]diazepin-6-yl)acetamido)methyl)benzyl)piperidin-4-yl)methyl)phenyl)-5-(2,4-dihydroxy-5-isopropylphenyl)-N-(2,2,2-trifluoroethyl)-4H-1,2,4-triazole-3-carboxamide, trifluoroacetic acid]",> 7.00
